ChEMBL document CHEMBL1149555, “Synthesis and antiproliferative activity of thiazolidine analogs for melanoma” (Bioorg Med Chem Lett, 2007)

What was measured:
[1] = Antiproliferative activity against human WM164 cells after 48 hrs by SRB assay; assay type: functional, cell-based; conditions: WM164, 48 h
[2] = Antiproliferative activity against human fibroblasts after 48 hrs by SRB assay; assay type: cell-based; conditions: Fibroblast
[3] = Antiproliferative activity against human SK-MEL-188 cells after 48 hrs by SRB assay; assay type: functional, cell-based; conditions: SK-MEL-188, 48 h

Structure (SMILES) | IC50 [1] | IC50 [2] | IC50 [3]
CCCCCCCCCCCCNC(=O)[C@@H]1CSC(c2ccc3c(c2)OCO3)N1 (stereo partly specified) | 2.5 µM | 5.2 µM | 3.5 µM
CCCCCCCCC/C=C\CCCCCCCNC(=O)[C@@H]1CSC(c2ccc(NC(C)=O)cc2)N1 (stereo partly specified) | 1 µM | 10.6 µM | 1.4 µM
CCCCCCCCCCNC(=O)[C@@H]1CSC(c2ccc3c(c2)OCO3)N1 (stereo partly specified) | 4.5 µM | 8.2 µM | 6.6 µM
CCCCCCCCCCCCCCCCNC(=O)[C@@H]1CSC(c2ccc(N)cc2)N1 (stereo partly specified) | 1.4 µM | 7.4 µM | 2.3 µM
CCCCCCCCCCCCCCCCNC(=O)[C@@H]1CSC(c2ccc(NC(C)=O)cc2)N1 (stereo partly specified) | 0.6 µM | 19.1 µM | 2.1 µM
CCCCCCCCNC(=O)[C@@H]1CSC(c2cc(OC)c(OC)c(OC)c2)N1 (stereo partly specified) | 19.6 µM | 20.8 µM | 17.1 µM
CCCCCCCCCCCCCCCCCCNC(=O)[C@@H]1CSC(c2ccc(NC(C)=O)cc2)N1 (stereo partly specified) | 11.6 µM | > 60 µM | 22.3 µM
CCCCCCCCCCCCCCNC(=O)[C@@H]1CSC(c2ccc(OC)c(OC)c2)N1 (stereo partly specified) | 0.8 µM | 2.8 µM | 1.5 µM
CCCCCCCCCCCCCCCCNC(=O)[C@@H]1CSC(c2ccc(OC)c(OC)c2)N1 (stereo partly specified) | 0.5 µM | 2.1 µM | 1.5 µM
CN(C)/N=N/c1[nH]cnc1C(N)=O [DACARBAZINE] | > 100 µM | – | > 100 µM
CCCCCCCCC/C=C/CCCCCCCNC(=O)[C@@H]1CSC(c2ccc(NC(C)=O)cc2)N1 (stereo partly specified) | 1.4 µM | 18 µM | 3.3 µM
CCCCCCCCCCCCNC(=O)[C@@H]1CSC(c2ccc(NC(C)=O)cc2)N1 (stereo partly specified) | 1.2 µM | 3.5 µM | 2.4 µM
CCCCCCCCCCCCCCNC(=O)[C@@H]1CSC(c2ccc3c(c2)OCO3)N1 (stereo partly specified) | 1 µM | 4.2 µM | 1.6 µM
CCCCCCCCCCCCCCNC(=O)[C@@H]1CSC(c2cc(OC)c(OC)c(OC)c2)N1 (stereo partly specified) | 1.6 µM | 2.6 µM | 2 µM
CCCCCCCCCCCCCCCCNC(=O)[C@@H]1CSC(c2ccc3c(c2)OCO3)N1 (stereo partly specified) | 1.8 µM | 5.7 µM | 1.6 µM
CCCCCCCCCCCCCCCNC(=O)[C@@H]1CSC(c2ccc(NC(C)=O)cc2)N1 (stereo partly specified) | 1 µM | 14.3 µM | 1.6 µM
CCCCCCCCCCCCCCNC(=O)[C@@H]1CSC(c2ccccc2)N1 (stereo partly specified) | 0.6 µM | 2.8 µM | 1.9 µM

Structure (SMILES) | IC50 [1] | IC50 [2] | IC50 [3]
COc1cc(C2SCC3C(=O)N4C(CSC4c4cc(OC)c(OC)c(OC)c4)C(=O)N32)cc(OC)c1OC (stereo unspecified) | > 50 µM | > 50 µM | > 50 µM
CCCCCCCCCCNC(=O)[C@@H]1CSC(c2cc(OC)c(OC)c(OC)c2)N1 (stereo partly specified) | 2.1 µM | 6.7 µM | 14.5 µM
CCCCCCCCCCCCCCNC(=O)[C@H]1CSC(c2cc(OC)c(OC)c(OC)c2)N1 (stereo partly specified) | 1.1 µM | 4.1 µM | 2.6 µM
CCCCCCCCCCCCCCCCNC(=O)[C@@H]1CSC(c2ccccc2)N1 (stereo partly specified) | 0.7 µM | 2.2 µM | 1.9 µM
CCCCCCCCCCCCCCCCNC(=O)[C@@H]1CSC(c2cc(OC)c(OC)c(OC)c2)N1 (stereo partly specified) | 0.7 µM | 2.4 µM | 1.8 µM
CCCCCCCCCCCCCCCCNC(=O)[C@H]1CSC(c2ccc(NC(C)=O)cc2)N1 (stereo partly specified) | 1.4 µM | 22.6 µM | 3.2 µM
CCCCCCCCCCCCCCNC(=O)[C@@H]1CSC(c2ccc(NC(C)=O)cc2)N1 (stereo partly specified) | 0.6 µM | 3.6 µM | 2.3 µM
CCCCCCCCCCCCNC(=O)[C@@H]1CSC(c2ccc(N)cc2)N1 (stereo partly specified) | 1.4 µM | 4.1 µM | 2.2 µM
CCCCCCCCCCCCCCCCCNC(=O)[C@@H]1CSC(c2ccc(NC(C)=O)cc2)N1 (stereo partly specified) | 2.4 µM | 35.8 µM | 8.5 µM
CCCCCCCCCCCCNC(=O)[C@@H]1CSC(c2ccc(OC)c(OC)c2)N1 (stereo partly specified) | 1.6 µM | 4.5 µM | 2.9 µM
CCCCCCCCCCNC(=O)[C@@H]1CSC(c2ccc(OC)c(OC)c2)N1 (stereo partly specified) | 6.1 µM | 6.3 µM | 11.9 µM
CON(C)C(=O)[C@@H]1CSC(c2ccccc2)N1 (stereo partly specified) | > 100 µM | > 100 µM | > 100 µM
CCCCCCCCCCCCNC(=O)[C@@H]1CSC(c2cc(OC)c(OC)c(OC)c2)N1 (stereo partly specified) | 2.4 µM | 2.4 µM | 2.1 µM
CCCCCCCCCCCCCCCCNC(=O)[C@@H]1CSC(c2ccc(NC(C)=O)cc2)N1C (stereo partly specified) | > 100 µM | > 100 µM | 29.1 µM
CNC(=O)c1cc(Oc2ccc(NC(=O)Nc3ccc(Cl)c(C(F)(F)F)c3)cc2)ccn1 [SORAFENIB] | 4.9 µM | 15.1 µM | 5.4 µM
CCCCCCCCCCCCCCNC(=O)[C@@H]1CSC(c2ccc(OC)c(OC)c2)=N1 | 42.9 µM | > 50 µM | 19.1 µM
CCCCCCCCCCCCCCNC(=O)[C@@H]1CSC(c2ccccc2)=N1 | > 50 µM | > 50 µM | 42.1 µM
